Data set [1] can be described thus: Cytotoxicity against human L02 cells assessed as reduction in cell viability incubated for 48 hrs by MTT assay. It counts as toxicity, cell-based.
A short description of data set [2]: Cytotoxicity against human SH-SY5Y cells assessed as reduction in cell viability incubated for 48 hrs by MTT assay. It counts as toxicity, cell-based.
Data set [3] is described as follows: Cytotoxicity against HEK293 cells assessed as reduction in cell viability incubated for 48 hrs by MTT assay. Type of data set: toxicity, cell-based. The conditions noted are these: human.
Data set [4] deals with SH-SY5Y. The experiment in a line: Neuroprotective activity against MPP+-induced human SH-SY5Y cells assessed as reduction in cell death at 5 uM measured after 48 hrs by MTT assay relative to control. Type of data set: functional. Set-up: scale not given: the % may be the effect or the level left.
For data set [5], the system named is SH-SY5Y. The experiment in a line: Neuroprotective activity against MPP+-induced human SH-SY5Y cells assessed as reduction in cell death at 0.08 to 5 uM measured after 48 hrs by MTT assay relative to control. Type of data set: functional. On the set-up: scale not given: the % may be the effect or the level left. As to conditions: dose 0.08-5 µM.

Where only a bound is given, the exact number is not on record here.

Take `Cc1ccc(C(=O)Nc2ccc(CN3CCN(C)CC3)c(C(F)(F)F)c2)cc1Nc1cccc2c1C(=O)C(=O)N2C`: the concentration for half-maximal inhibition (IC50) at 48 h in data set [1] is > 80 µM; in data set [2], 23.6 µM; in data set [3], 16.6 µM.

Turning to `Cc1ccc(C(=O)Nc2cc(-c3cnn(C)c3)cc(C(F)(F)F)c2)cc1Nc1cccc2c1C(=O)C(=O)N2C`, the IC50 at 48 h in data set [1], in data set [2] and in data set [3] was > 80 µM throughout.

In the case of `Cc1cn(-c2cc(NC(=O)c3ccc(C)c(Nc4nccc(-c5cccnc5)n4)c3)cc(C(F)(F)F)c2)cn1` [NILOTINIB], the Activity in the data set on SH-SY5Y [4] is 20%; in the data set with SH-SY5Y [5], 6.9%. Also, the results for the IC50 at 48 h in data set [1] and in data set [3] were 37 µM and 8.2 µM, respectively.

For the origin of these results see ChEMBL document CHEMBL5329216, “Discovery of conformationally constrained c-Abl inhibitors with potential neuroprotective effects against Parkinson's disease” (Bioorg Med Chem, 2023).
